“Also recorded” adds a separate entry of the source. Non-standard residues stand in square brackets, D forms with d. Residues, ends and D or L forms follow the SMILES beside them. No end group written: not given here. *: point of attachment. Biotin = O=C1N[C@H]2[C@H](CS[C@H]2CCCCC(=O)*)N1
Assays:
[1] = test system: TK-1 T cells; experiment: Peptide internalization and visualization in TK-1 cells; type: cell-based, mouse; conditions: confocal microscopy; for internalization of R9-fused peptide by TK-1 cells: 30 min incubation; for uptake of penetratin-fused peptide into TK-1 cells: 50 μM peptide, 1 h, FITC-streptavidin
Protocol: Peptide internalization and visualization. […] After washing with PBS, cells were resuspended into PBS/1% FCS and cytocentrifuged onto glass slides. Cytospin smears were fixed with 4% paraformaldehyde in PBS for 15 min at room temperature, washed twice with PBS and permeabilized in PBS containing 0.2% Triton X-100 for 10 min. Biotinylated peptide was detected by incubating the slides with streptavidin-FITC (Sigma, Mo.), and visualized using a Leica TCS 4D confocal laser microscope. Images were processed using Leica Scanware™ 4.2 A software and Adobe Photoshop 5.0.

[2] = test system: TK-1 T cells; type: cell-based, mouse
[3] = test system: α4β7-mediated adhesion of TK-1 cells to VCAM-1; experiment: Cell adhesion assay: TK-1 cells to immobilised VCAM-1-Fc; type: cell-based, mouse; conditions: for inhibition of adhesion of CMFDA-labeled TK-1 cells to immobilized human VCAM-1-Fc: R9-fused L and D analogs of YDRREY, fluorescence readout; for inhibition of TK-1 cell adhesion to VCAM-1: Mn++ or PMA-activated cells preincubated with increasing concentrations of peptide
Protocol: (§1) Cell adhesion assays. Lab-Tek 16-well glass slides (Nunc) or flat-bottomed 96-well maxisorb plates (Nunc) were coated with purified mouse MAdCAM-1-Fc, human VCAM-1-Fc, and human ICAM-1-Fc (70 to 100 μl of 5 to 10 μg/ml), and incubated at 4° C. overnight. Slides were washed once with PBS, and blocked with FCS for 2 h at room temperature. Slides were washed with Hanks balanced salt solution (HBSS) containing 10 mM Hepes. Cells were either left unlabeled or labeled with the fluorescent dye chloromethyl fluorescein diacetate (CMFDA; Molecular Probes, Oregon), and activated by resuspension in HBSS containing 10 mM Hepes supplemented with 2 mM Ca^++ and 2 mM Mn^++. Cells were alternatively activated with 50 ng/ml PMA, or by incubating with AlF4^− (10 mM NaF and 40 µM AlCl3). They were preincubated with peptides at different concentrations for 10 min at room temperature, checked for viability by trypan blue exclusion, and then 10^6 cells added to each coated well and left to adhere for 30 min at room temperature. Non-adherent unlabeled cells in 16-well glass slides were removed by twice dipping slides gently into PBS, and adherent cells fixed in PBS containing 2% (v/v) glutaraldehyde for at least 3 h. The number of adherent cells was determined by counting the number of adherent cells in four independent fields at 100× magnification under an inverted microscope. Alternatively, non-adherent CMFDA-labeled cells in 96-well plates were removed by inverse centrifugation at 70×g for 5 min into 50 mM Tris pH 7.5, 150 mM NaCl, 2 mM MnCl2, followed by gentle washing with a pipette. The fluorescence of CMFDA-labeled adherent cells was measured using a VICTOR 1420 multilabel counter (Wallac). Unless otherwise stated, experiments were repeated in triplicate, using duplicate wells.

[4] = test system: adhesion of H9 cells to VCAM-1; experiment: Cell adhesion assay: H9 cells to VCAM-1-Fc; type: cell-based, human; conditions: Mn++ or PMA-activated H9 cells
Protocol: as §1

[5] = test system: kinase(s) in TK-1 cell lysate; experiment: Assay to test whether β7 cytoplasmic domain peptides bind a kinase(s); type: biochemical, mouse; conditions: lysates of unactivated or AlF4−-activated TK-1 cells
Protocol: Assay to test whether β7 cytoplasmic domain peptides bind a kinase(s). TK-1 cells (3×10^6) were lysed in 1 ml of lysis buffer, and centrifuged at 12,000×g for 10 min at 4° C. Supernatants were precleared with 10 μl of Sepharose and then 10 μl of streptavidin-Sepharose. Cytoplasmic domain peptides were screened for their ability to associate with a kinase in lysates of TK-1 cells that were either left unactivated or had been activated with AlF4^−. Biotinylated peptides immobilized on 5 μl of streptavidin-Sepharose were incubated with 1 ml of lysis buffer containing 1 μl of cell lysate for 2 h at 4° C. with gentle shaking. The beads were washed thrice with ice-cold lysis buffer, once with kinase buffer, and were incubated with 30 μl kinase buffer and 0.5 to 1 μCi γ-ATP for 20 min at 30° C. Beads were washed five times, and radioactivity measured in a scintillation counter.

[6] = test system: adhesion of H9 cells to MAdCAM-1; experiment: Cell adhesion assay: H9 cells to MAdCAM-1-Fc; type: cell-based, human; conditions: Mn++ or PMA-activated H9 cells
Protocol: as §1

[7] = test system: α4β7-mediated adhesion of TK-1 cells to MAdCAM-1; experiment: Cell adhesion assay: TK-1 cells to immobilised MAdCAM-1-Fc; type: cell-based, mouse; conditions: for inhibition of TK-1 cell adhesion to MAdCAM-1: Mn++, PMA or AlF4−-activated cells preincubated with increasing concentrations of peptide
Protocol: as §1

[8] = test system: H9 cells adhered to MAdCAM-1 and VCAM-1; experiment: Detachment of already adhered H9 cells (established focal adhesions); type: cell-based, human; conditions: Mn++ and PMA-activated cells, incubated 1 h with peptide after adhesion
Protocol: (§2) FIG. 5: Illustrates peptide β7-2 blocks ligand-induced clustering of α4β7 at the cell surface, but cannot disrupt established focal adhesions. (A) Peptide β7-2 blocks ligand-induced clustering of α4β7. TK-1 cells were preincubated with either the β7-2 or β7-3 peptides, or no peptide, and activated with AlF4^−. Ligand-induced clustering of α4β7 was induced by addition of MAdCAM-1-Fc, and cluster formation after 30 min was determined by staining cells with FITC-conjugated M293 mAb (anti-β7 subunit), followed by confocal microscopy. […] TK-1 (B, D) and H9 (C, E) cells activated with Mn^++, and PMA were adhered to glass slides coated with MAdCAM-1-Fc (B, C), and VCAM-1-Fc (D, E), and then incubated for 1 h with peptide β7-2. Cells bound were counted, and represent the mean±SD from four fields. Experiments were performed in triplicate.
(§3) Cell adhesion assays. Lab-Tek 16-well glass slides (Nunc) or flat-bottomed 96-well maxisorb plates (Nunc) were coated with purified mouse MAdCAM-1-Fc, human VCAM-1-Fc, and human ICAM-1-Fc (70 to 100 μl of 5 to 10 μg/ml), and incubated at 4° C. overnight. […] The number of adherent cells was determined by counting the number of adherent cells in four independent fields at 100× magnification under an inverted microscope. […] The fluorescence of CMFDA-labeled adherent cells was measured using a VICTOR 1420 multilabel counter (Wallac). […]

[9] = test system: TK-1 cells adhered to MAdCAM-1 and VCAM-1; experiment: Detachment of already adhered TK-1 cells (established focal adhesions); type: cell-based, mouse; conditions: Mn++ and PMA-activated cells, incubated 1 h with peptide after adhesion
Protocol: as §2, §3

[10] = test system: MAdCAM-1-induced clustering of α4β7 on TK-1 cells; experiment: Confocal microscopy analysis of receptor clustering; type: cell-based, mouse; conditions: AlF4−-activated TK-1 cells, peptide 50 μM
Protocol: Confocal microscopy analysis of receptor clustering. TK-1 cells were incubated in the presence or absence of peptides (50 μM) for 1 h at room temperature, and cells were activated for 30 min at room temperature in HBSS containing 2 mM Ca++ and AlF4^−. Cells were incubated with MAdCAM-1-coated microspheres for 1 h on ice. They were washed with PBS containing 0.02% sodium azide, and fixed in 4% (w/v) paraformaldehyde in PBS for an additional 1 h. They were then stained with FITC-conjugated anti-β7 subunit M293 mAb, washed and fixed as above. Cells were mixed 1:1 with Citifluor glycerol/PBS solution, mounted on slides, and analyzed using a Leica TCS4D confocal laser scanning microscope equipped with an external argon-krypton laser (488 nm). Images were digitally recorded and printed on an Epson colour printer using Microsoft Power Point software.

[11] = test system: α4β7-mediated adhesion of TK-1 cells to RGD polymer; experiment: Cell adhesion assay: TK-1 cells to fibronectin-like polymer (RGD); type: cell-based, mouse; conditions: for inhibition of TK-1 cell adhesion to RGD polymer: Mn++ or PMA-activated cells preincubated with increasing concentrations of peptide
[12] = test system: adhesion of H9 cells to RGD polymer; experiment: Cell adhesion assay: H9 cells to RGD polymer; type: cell-based, human; conditions: data not shown

| Molecule | inhibition of H9 cell adhesion to VCAM-1 [4] | uptake of penetratin-fused peptide into TK-1 cells [1] | formation of a phosphorylated complex (kinase association / phosphorylation of immobilized peptide) [5] | inhibition of H9 cell adhesion to MAdCAM-1 [6] | inhibition of TK-1 cell adhesion to MAdCAM-1 [7] | inhibition of TK-1 cell adhesion to VCAM-1 [3] | inhibition of TK-1 cell adhesion to RGD polymer [11] | also measured |
| --- | --- | --- | --- | --- | --- | --- | --- | --- |
| N=C(N)NCCC[C@@H](NC(=O)CCCC[C@@H]1SC[C@@H]2NC(=O)N[C@@H]21)C(=O)N[C@H](CCCNC(=N)N)C(=O)N[C@H](CCCNC(=N)N)C(=O)N[C@H](CCCNC(=N)N)C(=O)N[C@H](CCCNC(=N)N)C(=O)N[C@H](CCCNC(=N)N)C(=O)N[C@H](CCCNC(=N)N)C(=O)N[C@H](CCCNC(=N)N)C(=O)N[C@H](CCCNC(=N)N)C(=O)N[C@H](Cc1ccc(O)cc1)C(=O)N[C@H](CC(=O)O)C(=O)N[C@H](CCCNC(=N)N)C(=O)N[C@H](CCCNC(=N)N)C(=O)N[C@H](CCC(=O)O)C(=O)N[C@H](Cc1ccc(O)cc1)C(=O)O [β7-13] (Biotin-[dR][dR][dR][dR][dR][dR][dR][dR][dR][dY][dD][dR][dR][dE][dY]-OH; N-terminus and C-terminus assumed) | – | – | – | – | – | – | – | internalization of R9-fused peptide by TK-1 cells [1]: internalized; cytotoxic concentration ([2]; 2 h): exceeding 50 μM; cell death ([2]; at 100 μM, data not shown): 50%; inhibition of adhesion of CMFDA-labeled TK-1 cells to immobilized human VCAM-1-Fc [3]: inhibit; inhibition of adhesion of CMFDA-labeled TK-1 cells to immobilized human VCAM-1-Fc ([3]; listed as D-amino acid form): as equally potent as the L-enantiomer |
| QLNWKQDSNPLYKSAITTT [β7-4] | completely ineffective | taken up | formed a phosphorylated complex | completely ineffective | – | – | – | – |
| RLSVEIYDRREY [β7-2] | blocked | taken up | – | blocked | abrogated | abrogated | abrogated | blockade of TK-1 cell-binding to MAdCAM-1 ([7]; 100 μm of peptide): almost completely blocked; detachment of H9 cells already adhered to MAdCAM-1 and VCAM-1 [8]: not able to detach; also recorded: cannot disrupt focal adhesions to detach cells; blockade of TK-1 cell-binding to VCAM-1 ([3]; 100 μm of peptide): almost completely blocked; detachment of TK-1 cells already adhered to MAdCAM-1 and VCAM-1 [9]: not able to detach; also recorded: cannot disrupt focal adhesions to detach cells; blockade of MAdCAM-1-induced clustering (redistribution) of α4β7 at the cell surface [10]: completely blocked; also recorded: blocks; reduction in TK-1 cell binding to the RGD polymer ([11]; 100 μm of peptide): 50% |
| YDRREY [β7-8] (Biotin-RQIKIWFQNRRMKWKKYDRREY; not fully specified) | also blocked | taken up | formed a phosphorylated complex | also blocked | retained the ability to block | retained the ability to block | retained the ability to block | inhibition of H9 cell adhesion to RGD polymer [12]: also blocked |
| YDRREY [β7-12] | – | – | – | – | inhibited | – | – | internalization of R9-fused peptide by TK-1 cells [1]: rapidly internalized; inhibition of adhesion of CMFDA-labeled TK-1 cells to immobilized human VCAM-1-Fc [3]: inhibit |
| β7-5: extreme C-terminal control peptide of β7cyt (SEQ ID NO. 23) fused to penetratin (Biotin-RQIKIWFQNRRMKWKKTTTINPRFQEADSPTL; not fully specified) | completely ineffective | taken up | did not form a phosphorylated complex | completely ineffective | – | – | – | – |
| β7-7: β7cyt residues 729-735 (SEQ ID NO. 24) fused to penetratin (Biotin-RQIKIWFQNRRMKWKKRLSVEIY; not fully specified) | – | taken up | did not form a phosphorylated complex | – | completely ineffective | completely ineffective | completely ineffective | – |
| β7-10: peptide β7-12 truncated to remove tyrosine 735 (SEQ ID NO. 26), fused to r9 (Biotin-[dR][dR][dR][dR][dR][dR][dR][dR][dR]DRREY) | – | – | formed a phosphorylated complex | – | not able to inhibit | – | – | – |
| β7-11: peptide β7-12 truncated to remove tyrosine 740 (SEQ ID NO. 27), fused to r9 (Biotin-[dR][dR][dR][dR][dR][dR][dR][dR][dR]YDRRE) | – | – | formed a phosphorylated complex | – | not able to inhibit | – | – | – |

Source: patent US8106003B2, “Peptides and methods for the treatment of inflammatory disease” (Auckland Uniservices Limited, priority 2004, dated 2012)
